{"source": "patent US20050004126A1", "about": "(priority 2001, published 2005)", "note": "Where “and” joins values, the source holds several entries; their conditions need not be identical. Equal entries are not always repeated.", "data": [{"molecular_target": "T1, MMP-1FL (full-length interstitial collagenase) (Homo sapiens, UniProt P03956)", "T1 sequence (P03956 100-469)": "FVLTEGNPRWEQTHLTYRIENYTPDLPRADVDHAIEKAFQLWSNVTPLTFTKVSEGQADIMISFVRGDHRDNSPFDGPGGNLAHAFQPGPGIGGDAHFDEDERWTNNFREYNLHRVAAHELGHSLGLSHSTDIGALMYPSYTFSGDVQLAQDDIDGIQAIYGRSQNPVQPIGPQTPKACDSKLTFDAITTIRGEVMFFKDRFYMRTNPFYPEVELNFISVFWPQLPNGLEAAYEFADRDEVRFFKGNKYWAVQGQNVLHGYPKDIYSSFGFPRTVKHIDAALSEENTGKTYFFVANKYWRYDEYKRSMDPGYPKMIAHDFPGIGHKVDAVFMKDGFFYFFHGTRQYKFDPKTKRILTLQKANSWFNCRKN", "assay": "Thiopeptolide hydrolysis assay, MMP-1", "format": "biochemical", "conditions": "Table 1b; read-out: MMP01 IC50", "units": {"IC50": "nM"}, "protocol": "(§1) They measure the amount by which a test compound reduces the hydrolysis of a thiopeptolide substrate caused by a matrix metalloproteinase enzyme.\nThiopeptolide substrates show virtually no decomposition or hydrolysis in the absence of a matrix metalloproteinase enzyme. A typical thiopeptolide substrate commonly utilized for assays is Ac-Pro-Leu-Gly-thioester-Leu-Leu-Gly-OEt. A 100 μL assay mixture will contain 50 mM of 2-morpholinoethane sulfonic acid monohydrate (MES, pH 6.0) 10 mM CaCl2, 100 μM thiopeptolide substrate, and 1 mM 5,5′-dithio-bis-(2-nitro-benzoic acid) (DTNB). […] The change in absorbance at 405 nm is monitored on a Thermo Max microplate reader (moleucular Devices, Menlo Park, Calif.) at room temperature (22° C.). […] Assays are carried out with and without matrix metalloproteinase inhibitor compounds, and the amount of hydrolysis is compared for a determination of inhibitory activity of the test compounds.", "values": [{"smiles": "COC(=O)c1ccc(Cn2c(=O)c(C)c3sc(C(=O)NCc4ccc(F)cc4)cn3c2=O)cc1OC", "IC50": "> 30000"}, {"smiles": "Cc1c(=O)n(Cc2ccccc2)c(=O)n2cc(C(=O)NCc3ccc4nsnc4c3)sc12", "IC50": "> 30000"}]}, {"molecular_target": "T1, MMP-1FL (full-length interstitial collagenase)", "assay": "Thiopeptolide hydrolysis assay, MMP-1", "format": "biochemical", "conditions": "Table II; read-out: MMP01 IC50", "units": {"IC50": "nM"}, "values": [{"smiles": "COc1ccc(C(=O)OCc2ccc3nsnc3c2)cc1C(=O)OCc1ccc2nsnc2c1", "IC50": 30000}, {"smiles": "O=C(O)c1ccc(COC(=O)c2cccc(C(=O)NCc3ccc4c(c3)OCO4)c2)cc1", "IC50": "> 100000"}, {"smiles": "CC(C)Oc1ccc(C(=O)NCc2ccc3c(c2)OCO3)cc1C(=O)NCc1ccc2c(c1)OCO2", "IC50": 71000}, {"smiles": "COc1ccc(CNC(=O)c2ccc(OC)c(C(=O)NCc3ccc(OC)cc3)c2)cc1", "note": "[4-Methoxy-N,N′-bis-(4-methoxybenzyl)-isophthalamide]", "IC50": "> 100000"}]}, {"molecular_target": "MMP-13CD (catalytic domain of collagenase 3) (Homo sapiens, UniProt P45452)", "assay": "Thiopeptolide hydrolysis assay, MMP-13;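 note: inhibition of enzymatic thiopeptolide substrate cleavage (100 µM) in pH 6.0 MES buffer with CaCl2 and DTNB, comparing hydrolysis with versus without inhibitor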", "conditions": "IC50 μM, Table V; MMP-13", "units": {"IC50": "µM"}, "protocol": "as §1\nThiopeptolide substrates show virtually no decomposition or hydrolysis in the absence of a matrix metalloproteinase enzyme. A typical thiopeptolide substrate commonly utilized for assays is Ac-Pro-Leu-Gly-thioester-Leu-Leu-Gly-OEt. A 100 μL assay mixture will contain 50 mM of 2-morpholinoethane sulfonic acid monohydrate (MES, pH 6.0) 10 mM CaCl2, 100 μM thiopeptolide substrate, and 1 mM 5,5′-dithio-bis-(2-nitro-benzoic acid) (DTNB). […] Assays are carried out with and without matrix metalloproteinase inhibitor compounds, and the amount of hydrolysis is compared for a determination of inhibitory activity of the test compounds.", "values": [{"smiles": "O=C(O)Cc1ccc(Cn2c(=O)c3cc(C(=O)NCc4ccc5c(c4)OCO5)ccc3n3cnnc23)cc1", "note": "[(4-{7-[(1,3-Benzodioxol-5-ylmethyl)-carbamoyl]-5-oxo-5H-[1,2,4]triazolo[4,3-a]quinazolin-4-ylmethyl}-phenyl)-acetic acid]", "IC50": 0.0011}, {"smiles": "COc1ccc(CNC(=O)c2ccc3c(c2)c(=O)n(Cc2ccc(CC(=O)O)cc2)c2nncn32)cc1", "note": "[(4-{7-[(4-Methoxy)-benzylcarbamoyl]-5-oxo-5H-[1,2,4]triazolo[4,3-a]quinazolin-4-ylmethyl}-phenyl)-acetic acid]", "IC50": 0.0013}, {"smiles": "O=C(O)Cc1ccc(Cn2c(=O)c3cc(C(=O)NCc4ccncc4)ccc3n3cnnc23)cc1", "note": "[(4-{7-[(Pyridin-4-yl)-methylcarbamoyl]-5-oxo-5H-[1,2,4]triazolo[4,3-a]quinazolin-4-ylmethyl}-phenyl)-acetic acid]", "IC50": 0.0062}, {"smiles": "COC(=O)c1ccc(Cn2c(=O)c3cc(C(=O)NCc4ccc5c(c4)OCO5)ccc3n3cnnc23)cc1", "note": "[Methyl 4-{7-[(1,3-benzodioxol-5-ylmethyl)-carbamoyl]-5-oxo-5H-[1,2,4]triazolo[4,3-a]quinazol-4-ylmethyl}benzoate]", "IC50": 0.0011}, {"smiles": "COC(=O)c1ccc(Cn2c(=O)c3cc(C(=O)NCc4ccncc4)ccc3n3cnnc23)cc1", "note": "[Methyl 4-{7-[(pyridin-4-ylmethyl)-carbamoyl]-5-oxo-5H-[1,2,4]triazolo[4,3-a]quinazol-4-ylmethyl}benzoate]", "IC50": 0.012}, {"smiles": "COC(=O)Cc1ccc(Cn2c(=O)c3cc(C(=O)NCc4ccc5c(c4)OCO5)ccc3n3cnnc23)cc1", "note": "[Methyl (4-{7-[(1,3-benzodioxol-5-ylmethyl)-carbamoyll-5-oxo-5H-[1,2,4]triazolo[4,3-a]quinazolin-4-ylmethyl}-phenyl)-acetate]", "IC50": 0.0022}, {"smiles": "COC(=O)Cc1ccc(Cn2c(=O)c3cc(C(=O)NCc4ccc(OC)cc4)ccc3n3cnnc23)cc1", "note": "[Methyl (4-{7-[(4-methoxy)-benzylcarbamoyl]-5-oxo-5H-[1,2,4]triazolo[4,3-a]quinazolin-4-ylmethyl}-phenyl)-acetate]", "IC50": 0.0029}, {"smiles": "COC(=O)Cc1ccc(Cn2c(=O)c3cc(C(=O)NCc4ccncc4)ccc3n3cnnc23)cc1", "note": "[Methyl (4-{7-[(pyridin-4-yl)-methylcarbamoyl]-5-oxo-5H-[1,2,4]triazolo[4,3-a]quinazolin-4-ylmethyl}-phenyl)-acetate]", "IC50": 0.013}, {"smiles": "COc1ccc(CNC(=O)c2ccc3c(c2)c(=O)n(Cc2ccccc2)c2nncn32)cc1", "note": "[N-(4-Methoxybenzyl)-4-benzyl-5-oxo-4,5-dihydro[1,2,4]triazolo [4,3-a]quinazoline-7-carboxamide]", "IC50": 0.0055}, {"smiles": "O=C(NCc1ccncc1)c1ccc2c(c1)c(=O)n(C/C=C/c1ccncc1)c1nncn21", "note": "[N-(pyridin-4-ylmethyl) 4-[3-(pyridin-4-yl)-2-propen-1-yl]-5-oxo-4H-[1,2,4]triazolo[4,3-a]quinazol-7-ylcarboxamide]", "IC50": 0.35}, {"smiles": "N#Cc1ccc(Cn2c(=O)c3cc(C(=O)NCc4ccncc4)ccc3n3cnnc23)cc1", "note": "[N-(pyridin-4ylmethyl)-4-(4-cyanobenzyl)-5-oxo-4H-[1,2,4]triazolo[4,3-a]quinazol-7-ylcarboxamide]", "IC50": 0.021}, {"smiles": "O=C(NCCCSc1ccncc1)c1ccc2c(c1)c(=O)n(Cc1ccccc1)c1nncn21", "note": "[N-[3-(4-Pyridylsulphanyl)propyl]-4-benzyl-5-oxo-4,5-dihydro[1,2,4]triazolo[4,3-a]quinazoline-7-carboxamide]", "IC50": 0.185}, {"smiles": "O=C(OCc1ccccc1)c1ccc2c(c1)c(=O)n(Cc1ccccc1)c1nncn21", "note": "[Synthesis Example 55, Benzyl 4-benzyl-5-oxo-4H-[1,2,4]triazolo[4,3-a]quinazol-7-ylcarboxylate]", "IC50": 0.0034}, {"smiles": "O=C(OCc1ccncc1)c1ccc2c(c1)c(=O)n(Cc1ccccc1)c1nncn21", "note": "[Synthesis Example 56, 4-Pyridylmethyl 4-benzyl-5-oxo-4H-[1,2,4]triazolo[4,3-a]quinazol-7-yl-carboxylate]", "IC50": 0.0023}, {"smiles": "O=C(NCc1ccc2c(c1)OCO2)c1ccc2c(c1)c(=O)n(Cc1ccccc1)c1nncn21", "note": "[Synthesis Example 57, N-(3,4-Methylenedioxybenzyl)-4-benzyl-5-oxo-4H-[1,2,4]triazolo[4,3-a]quinazol-7-ylcarboxamide]", "IC50": 0.004}, {"smiles": "N#Cc1ccc(Cn2c(=O)c3cc(C(=O)NCc4ccc5c(c4)OCO5)ccc3n3cnnc23)cc1", "note": "[Synthesis Example 58, N-(3,4-Methylenedioxybenzyl)-4-(4-cyanobenzyl)-5-oxo-4H-[1,2,4]triazolo[4,3-a]quinazol-7-ylcarboxamide]", "IC50": 0.0023}, {"smiles": "COc1ccc(CNC(=O)c2ccc3c(c2)c(=O)n(Cc2ccc(C(=O)O)cc2)c2nncn32)cc1", "note": "[Synthesis Example 60, 4-{7-[(4-Methoxybenzyl)-carbamoyl]-5-oxo-5H-[1,2,4]triazolo[4,3-a]quinazol-4-ylmethyl}benzoic acid]", "IC50": 0.0011}]}, {"molecular_target": "MMP-13CD (catalytic domain of collagenase 3) (Homo sapiens, UniProt P45452)", "assay": "Thiopeptolide hydrolysis assay, MMP-13", "conditions": "IC50 μM, Table VII; MMP-13", "units": {"IC50": "µM"}, "values": [{"smiles": "COC(=O)c1ccc(Cn2c(=O)c3cc(C#CCc4ccc(OC)cc4)ccc3n(C)c2=O)cc1", "note": "[Synthesis Example 66, Methyl 4-{6-[3-(4-methoxyphenyl)-prop-1-ynyl]-1-methyl-2,4-dioxo-1,4-dihydro-2H-quinazolin-3-ylmethyl}-benzoate]", "IC50": 0.01}, {"smiles": "COc1ccc(CC#Cc2ccc3c(c2)c(=O)n(Cc2ccc(C(=O)O)cc2)c(=O)n3C)cc1", "note": "[Synthesis Example 68, 4-{6-[3-(4-Methoxy-phenyl)-prop-1-ynyl]-1-methyl-2,4-dioxo-1,4-dihydro-2H-quinazolin-3-ylmethyl}-benzoic acid]", "IC50": 0.0006}, {"smiles": "Cn1c(=O)n(Cc2ccc(C(=O)O)cc2)c(=O)c2cc(C#CCc3ccccc3)ncc21", "note": "[Synthesis Example 69, 4-[1-Methyl-2,4-dioxo-6-(3-phenyl-prop-1-ynyl)-1,4-dihydro-2H-pyrido[3,4-d]pyrimidin-3-ylmethyl]-benzoic acid]", "IC50": 0.0065}, {"smiles": "COc1ccc(CC#Cc2cc3c(=O)n(Cc4ccc(C(=O)O)cc4)c(=O)n(C)c3cn2)cc1", "note": "[Synthesis Example 70, 4-{6-[3-(4-Methoxy-phenyl)-prop-1-ynyl]-1-methyl-2,4-dioxo-1,4-dihydro-2H-pyrido[3,4-d]pyrimidin-3-ylmethyl}-benzoic acid]", "IC50": 0.0012}, {"smiles": "O=c1c2cc(C#CCc3ccccc3)ccc2n2cnnc2n1Cc1ccccc1", "note": "[Synthesis Example 71, 4-Benzyl-7-(3-phenyl-prop-1-ynyl)-4H-[1,2,4]triazolo[4,3-a]quinazolin-5-one]", "IC50": 0.0055}, {"smiles": "COc1ccc(CC#Cc2ccc3c(c2)c(=O)n(Cc2ccccc2)c2nncn32)cc1", "note": "[Synthesis Example 72, 4-Benzyl-7-[(4-methoxyphenyl)-prop-1-ynyl]-4H-[1,2,4]-triazolo[4,3-a]quinazolin-5-one]", "IC50": 0.0015}, {"smiles": "COC(=O)c1ccc(Cn2c(=O)c3cc(C#CCc4ccc(OC)cc4)ccc3n3cnnc23)cc1", "note": "[Synthesis Example 73, Methyl 4-{7-[3-(4-methoxy-phenyl)-prop-1-ynyl]-5-oxo-5H-[1,2,4]triazolo[4,3-a]quinazolin-4-ylmethyl}-benzoate]", "IC50": 0.0017}, {"smiles": "O=C(O)c1ccc(Cn2c(=O)c3cc(C#CCc4ccccc4)ccc3n3cnnc23)cc1", "note": "[Synthesis Example 74, 4-[5-Oxo-7-(3-phenyl-prop-1-ynyl)-5H-[1,2,4]triazolo[4,3-a]quinazolin-4-ylmethyl]-benzoic acid]", "IC50": 0.001}, {"smiles": "Cn1c(=O)n(Cc2ccc(C(=O)O)cc2)c(=O)c2cc(C#Cc3ccccc3)ccc21", "note": "[Synthesis Example 75, 4-(1-Methyl-2,4-dioxo-6-(2-phenylethynyl)-1,4-dihydro-2H-quinazolin-3-ylmethyl)-benzoic acid]", "IC50": 1.34}]}, {"molecular_target": "MMP-13CD (catalytic domain of collagenase 3) (Homo sapiens, UniProt P45452)", "assay": "Thiopeptolide hydrolysis assay, MMP-13", "conditions": "MMP13 IC50 μM, Table IVb", "units": {"IC50": "µM"}, "values": [{"smiles": "COC(=O)c1ccc(Cn2c(=O)c3cc(C(=O)NCc4ccc(OC)cc4)ncc3n(C)c2=O)cc1", "note": "[Methyl 4-[6-(4-Methoxy-benzylcarbamoyl)-1-methyl-2,4-dioxo-1,4-dihydro-2H-pyrido[3,4-d]pyrimidin-3-ylmethyl]-benzoate]", "IC50": 0.0017}]}, {"molecular_target": "MMP-13CD (catalytic domain of collagenase 3) (Homo sapiens, UniProt P45452)", "assay": "Thiopeptolide hydrolysis assay, MMP-13", "conditions": "MMP13 IC50 (nM), Table II", "values": [{"smiles": "O=C(O)c1ccc(COC(=O)c2cccc(C(=O)NCc3ccc4c(c3)OCO4)c2)cc1", "IC50": "0.033 µM"}, {"smiles": "CC(C)Oc1ccc(C(=O)NCc2ccc3c(c2)OCO3)cc1C(=O)NCc1ccc2c(c1)OCO2", "IC50": "3.75 µM"}, {"smiles": "O=C(OCc1ccc2c(c1)OCO2)c1cccc(C(=O)OCc2ccc3c(c2)OCO3)c1", "note": "[Isophthalic acid bis-(1,3-benzodioxol-5-ylmethyl) ester]", "IC50": "0.66 µM"}, {"smiles": "COc1ccc(CNC(=O)c2cc(C(=O)NCc3ccc4c(c3)OCO4)ccc2OC)cc1", "note": "[N-1,3-Benzodioxol-5-ylmethyl-4-methoxy-N′-(4-methoxy-benzyl)-isophthalamide]", "IC50": "0.2 µM and 0.19 µM"}, {"smiles": "COc1ccc(C(=O)NCc2ccc3c(c2)OCO3)cc1C(=O)NCc1ccc(Cl)cc1", "note": "[N-1,3-Benzodioxol-5-ylmethyl-N′-(4-chloro-benzyl)-4-methoxy-isophthalamide]", "IC50": "0.4 µM"}]}, {"molecular_target": "MMP-13CD (catalytic domain of collagenase 3) (Homo sapiens, UniProt P45452)", "assay": "Thiopeptolide hydrolysis assay, MMP-13", "conditions": "MMP13 IC50 (μM), Table 1b", "units": {"IC50": "µM"}, "values": [{"smiles": "COC(=O)c1ccc(Cn2c(=O)c(C)c3sc(C(=O)NCc4ccc(F)cc4)cn3c2=O)cc1OC", "IC50": 0.099}, {"smiles": "Cc1c(=O)n(Cc2ccccc2)c(=O)n2cc(C(=O)NCc3ccc4nsnc4c3)sc12", "IC50": 0.0046}]}]}
